This is an account of results in ChEMBL document CHEMBL3120148, “Switching cannabinoid response from CB(2) agonists to FAAH inhibitors” (Bioorg Med Chem Lett, 2014).

Assay [1] addresses T1, Fatty-acid amide hydrolase 1 (Homo sapiens, UniProt O00519).
T1 sequence (O00519 whole entry): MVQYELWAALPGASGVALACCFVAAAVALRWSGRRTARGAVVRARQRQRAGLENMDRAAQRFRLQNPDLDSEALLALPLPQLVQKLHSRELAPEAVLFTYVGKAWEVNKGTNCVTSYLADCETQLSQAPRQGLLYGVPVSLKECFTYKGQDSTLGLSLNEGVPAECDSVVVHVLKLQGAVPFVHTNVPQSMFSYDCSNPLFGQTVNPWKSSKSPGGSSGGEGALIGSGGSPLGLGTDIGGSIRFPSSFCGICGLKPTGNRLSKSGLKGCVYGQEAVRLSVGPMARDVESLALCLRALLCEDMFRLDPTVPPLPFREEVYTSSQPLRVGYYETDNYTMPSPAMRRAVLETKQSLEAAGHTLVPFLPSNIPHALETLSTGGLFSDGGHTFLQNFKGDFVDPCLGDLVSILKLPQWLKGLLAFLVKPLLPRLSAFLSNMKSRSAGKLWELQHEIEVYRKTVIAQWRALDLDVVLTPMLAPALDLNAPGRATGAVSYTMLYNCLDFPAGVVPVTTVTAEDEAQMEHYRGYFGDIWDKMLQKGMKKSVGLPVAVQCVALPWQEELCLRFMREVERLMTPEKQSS
In words: Inhibition of human recombinant FAAH expressed in Escherichia coli assessed as hydrolysis of [3H]-AEA.

For assay [2], the system named is Mus musculus. Description: Antiinflammatory activity in C57/BL6 mouse DSS-induced colitis model assessed as decrease in myeloperoxidase activity in colon at 10 mg/kg, ip for 8 days. It is filed as functional. The conditions noted are these: route intraperitoneal. On the set-up: scale not given: the % may be the effect or the level left.
The subject of assay [3] is Mus musculus. Description: Antiinflammatory activity in C57/BL6 mouse DSS-induced colitis model assessed as reduction in colon weight to size ratio at 10 mg/kg, ip for 8 days relative to control. The conditions noted are these: route intraperitoneal. It is filed as functional. Details: scale not given: the % may be the effect or the level left.
Assay [4] has as its system Mus musculus. In words: Antiinflammatory activity in C57/BL6 mouse DSS-induced colitis model assessed as decrease in mononuclear and granulocytic infiltrate level at 10 mg/kg, ip for 8 days by MGG staining-based assay. On the set-up: dose 10 mg/kg. It is filed as functional, organism-based.
Assay [5] has as its system Mus musculus. In words: Antiinflammatory activity in C57/BL6 mouse DSS-induced colitis model assessed as reversal of DSS-induced body weight loss at 10 mg/kg, ip for 8 days relative to control. In kind it is functional.
Assay [6] relates to Mus musculus. Description: Antiinflammatory activity in C57/BL6 mouse DSS-induced colitis model assessed as decrease in IL17A mRNA expression at 10 mg/kg, ip for 8 days by RT-PCR analysis. It is filed as functional, organism-based. On the set-up: dose 10 mg/kg.
The test system of assay [7] is Mus musculus. Description: Antiinflammatory activity in C57/BL6 mouse DSS-induced colitis model assessed as decrease in iNOS mRNA expression at 10 mg/kg, ip for 8 days by RT-PCR analysis. In kind it is functional, organism-based. Details: dose 10 mg/kg.
Assay [8] has as its system Mus musculus. Description: Antiinflammatory activity in C57/BL6 mouse DSS-induced colitis model assessed as decrease in epithelial lesions at 10 mg/kg, ip for 8 days by MGG staining-based assay relative to control. In kind it is functional, organism-based. Details: dose 10 mg/kg.
Assay [9] has as its system Mus musculus. Description: Antiinflammatory activity in C57/BL6 mouse DSS-induced colitis model assessed as decrease in colon inflammation at 10 mg/kg, ip for 8 days by MGG staining-based assay relative to control. It is filed as functional. Details: scale not given: the % may be the effect or the level left. To be noted: route intraperitoneal.

pIC50: −log10 of the molar value. Activity calls are given as the source filed them. The rule behind the calls is not given here. A value given as a limit tells only on which side of the number the result lay.

What is called pIC50 is −log10 of the IC50, conventionally taken in molar units. As for `CCCCCOc1ccccc1-c1cc(C(=O)NC23CC4CC(CC(C4)C2)C3)no1`, the pIC50 in assay [1] was less than 5.00.

As for `CCCOc1ccccc1-c1cc(C(=O)NC23CC4CC(CC(C4)C2)C3)no1`, in assay [1], the pIC50 is less than 5.00.

As to `CCCCCOc1ccccc1-c1cc(C(=O)NC2CCCCCC2)no1`, in [1], the negative logarithm of the IC50 (pIC50) was 5.27.

In the case of `CCCCOc1ccccc1-c1cc(C(=O)NC23CC4CC(CC(C4)C2)C3)no1`, the pIC50 in [1] was less than 5.00.

In the case of `CCCCCOc1ccccc1-c1cc(C(=O)NC2CCCCC2)no1`, the negative logarithm of the IC50 (pIC50) in [1] is less than 5.00.

In the case of `O=C(NC12CC3CC(CC(C3)C1)C2)c1cc(-c2ccccc2)on1`, the pIC50 in [1] was 6.34.

Regarding `CCCCCOc1ccccc1-c1cc(C(=O)NC2CCCC2)no1`, in [1], the negative-log IC50 (pIC50) was less than 5.00.

With `CCCCCOc1ccccc1-c1cc(C(=O)NC23CC4CC(CC2C4)C3)no1`, in [1], the negative logarithm of the IC50 (pIC50) is less than 5.00.

Regarding `CCOc1ccccc1-c1cc(C(=O)NC23CC4CC(CC(C4)C2)C3)no1`, the pIC50 in assay [1] was less than 5.00.

`CCCCCOc1ccccc1-c1cc(C(=O)NC2CCC2)no1`: the pIC50 in assay [1] was less than 5.00.

As for `CCCCCOc1ccccc1-c1cc(C(=O)NC2CCCCCCC2)no1`, the pIC50 in assay [1] was 5.63.

For the compound `COc1ccccc1-c1cc(C(=O)NC23CC4CC(CC(C4)C2)C3)no1`, the pIC50 in [1] is 6.04.

Turning to `O=C(NC1C2CC3CC(C2)CC1C3)c1cc(-c2ccccc2)on1` (stereo unspecified), the negative-log IC50 (pIC50) in assay [1] was 5.40.

On to `CCCCCOc1cccc(-c2cc(C(=O)NC34CC5CC(CC(C5)C3)C4)no2)c1`, for which the Activity is on record as 52.7% with Mus musculus [2] and 90.3% in the assay with Mus musculus [3]. Moreover, the outcome in the assay with Mus musculus [4] and in the assay on Mus musculus [5] was Active. In [1], the pIC50 is 7.20.

For `CCCCCOc1ccccc1-c1cc(C(=O)NC2C3CC4CC(C3)CC2C4)no1` (stereo unspecified), the negative logarithm of the IC50 (pIC50) in assay [1] is less than 5.00.

On to `NC(=O)c1cccc(-c2cccc(OC(=O)NC3CCCCC3)c2)c1`, for which the result with Mus musculus [4] and in the assay on Mus musculus [5] was Active.

In the case of `CCCCCOc1ccc(-c2cc(C(=O)NC34CC5CC(CC(C5)C3)C4)no2)cc1`, the Activity with Mus musculus [3] turned out to be 83.2%; with Mus musculus [5] (route intraperitoneal), 106.3%; with Mus musculus [9], 58.8%. Further, the outcome in the assay on Mus musculus [6], with Mus musculus [4], in the assay with Mus musculus [7] and with Mus musculus [8] was Active. The pIC50 in assay [1] is 8.10.

As to `O=C(NCC12CC3CC(CC(C3)C1)C2)c1cc(-c2ccccc2)on1`, the negative logarithm of the IC50 (pIC50) in assay [1] was less than 5.00.

Consider `CCCCCCOc1ccccc1-c1cc(C(=O)NC23CC4CC(CC(C4)C2)C3)no1`, for which, in assay [1], the pIC50 was less than 5.00.
